In patent publication US20140343000A1 (priority 2011, published 2014):

What follows are compounds tested on recombinant NL4-3 virus (Renilla luciferase in nef, Gag P373S; NLRluc) in MT-2 cells (assay: whole plant or invertebrate). Conditions: Renilla, NL43, luciferase activity in cells infected for 4-5 days with NLRluc recombinants, serial dilutions of inhibitor; class symbols (key in Table 1); read-out: EC50.
Type: cell-based, HIV
Summary of the method: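 MT-2 cells infected 4–5 days with NL4-3 carrying Renilla luciferase in nef and Gag P373S, with serial dilutions of inhibitor present. Antiviral activity quantified by luciferase activity, using Dual Luciferase reagents premixed with lysis buffer and read immediately.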
`C=C(C)[C@@H]1CC[C@]2(NC(=O)Cc3cccnc3)CC[C@]3(C)[C@H](CC[C@@H]4[C@@]5(C)CC=C(c6ccc(C(=O)O)cc6)C(C)(C)[C@@H]5CC[C@]43C)[C@@H]12` [Example 120, benzoic acid, 4-[(1R,3aS,5aR,5bR,7aR,11aS,11bR,13aR,13bR)-2,3,3a,4,5,5a,5b,6,7,7a,8,11,11a,11b,12,13,13a,13b-octadecahydro-5a,5b,8,8,11a-pentamethyl-1-(1-methylethenyl)-3a-[(3-pyridinylacetyl)amino]-1H-cyclopenta[a]chrysen-9-yl]] gave an EC50 of less than 100 nM. For `C=C(C)[C@@H]1CC[C@]2(NC(=O)COc3cccnc3)CC[C@]3(C)[C@H](CC[C@@H]4[C@@]5(C)CC=C(c6ccc(C(=O)O)cc6)C(C)(C)[C@@H]5CC[C@]43C)[C@@H]12` [Example 121, 4-((1R,3aS,5aR,5bR,7aR,11aS,11bR,13aR,13bR)-5a,5b,8,8,11a-pentamethyl-1-(prop-1-en-2-yl)-3a-(2-(pyridin-3-yloxy)acetamido)-2,3,3a,4,5,5a,5b,6,7,7a,8,11,11a,11b,12,13,13a,13b-octadecahydro-1H-cyclopenta[a]chrysen-9-yl)benzoic acid], the EC50 was less than 100 nM. In the case of `C=C(C)[C@@H]1CC[C@]2(NC(=O)CN3CCCCC3)CC[C@]3(C)[C@H](CC[C@@H]4[C@@]5(C)CC=C(c6ccc(C(=O)O)cc6)C(C)(C)[C@@H]5CC[C@]43C)[C@@H]12` [Example 122, 4-((1R,3aS,5aR,5bR,7aR,11aS,11bR,13aR,13bR)-5a,5b,8,8,11a-pentamethyl-3a-(2-(piperidin-1-yl)acetamido)-1-(prop-1-en-2-yl)-2,3,3a,4,5,5a,5b,6,7,7a,8,11,11a,11b,12,13,13a,13b-octadecahydro-1H-cyclopenta[a]chrysen-9-yl)benzoic acid], the EC50 is reported as less than 100 nM. `C=C(C)[C@@H]1CC[C@]2(NC(=O)CN(C(C)C)C(C)C)CC[C@]3(C)[C@H](CC[C@@H]4[C@@]5(C)CC=C(c6ccc(C(=O)O)cc6)C(C)(C)[C@@H]5CC[C@]43C)[C@@H]12` [Example 123, 4-((1R,3aS,5aR,5bR,7aR,11aS,11bR,13aR,13bR)-3a-(2-(diisopropylamino)acetamido)-5a,5b,8,8,11a-pentamethyl-1-(prop-1-en-2-yl)-2,3,3a,4,5,5a,5b,6,7,7a,8,11,11a,11b,12,13,13a,13b-octadecahydro-1H-cyclopenta[a]chrysen-9-yl)benzoic acid] showed an EC50 of less than 100 nM. With `C=C(C)[C@@H]1CC[C@]2(NC(=O)CN3CCCCC3C)CC[C@]3(C)[C@H](CC[C@@H]4[C@@]5(C)CC=C(c6ccc(C(=O)O)cc6)C(C)(C)[C@@H]5CC[C@]43C)[C@@H]12` (stereo partly drawn) [Example 124, 4-((1R,3aS,5aR,5bR,7aR,11aS,11bR,13aR,13bR)-5a,5b,8,8,11a-pentamethyl-3a-(2-(2-methylpiperidin-1-yl)acetamido)-1-(prop-1-en-2-yl)-2,3,3a,4,5,5a,5b,6,7,7a,8,11,11a,11b,12,13,13a,13b-octadecahydro-1H-cyclopenta[a]chrysen-9-yl)benzoic acid] the EC50 was less than 100 nM. Work on `C=C(C)[C@@H]1CC[C@]2(NC(=O)CNc3ccc(F)cc3)CC[C@]3(C)[C@H](CC[C@@H]4[C@@]5(C)CC=C(c6ccc(C(=O)O)cc6)C(C)(C)[C@@H]5CC[C@]43C)[C@@H]12` [Example 125, 4-((1R,3aS,5aR,5bR,7aR,11aS,11bR,13aR,13bR)-3a-(2-(4-fluorophenylamino)acetamido)-5a,5b,8,8,11a-pentamethyl-1-(prop-1-en-2-yl)-2,3,3a,4,5,5a,5b,6,7,7a,8,11,11a,11b,12,13,13a,13b-octadecahydro-1H-cyclopenta[a]chrysen-9-yl)benzoic acid] yielded an EC50 of less than 100 nM. In the case of `C=C(C)[C@@H]1CC[C@]2(NC(=O)Cc3ncccn3)CC[C@]3(C)[C@H](CC[C@@H]4[C@@]5(C)CC=C(c6ccc(C(=O)O)cc6)C(C)(C)[C@@H]5CC[C@]43C)[C@@H]12` [Example 126, 4-((1R,3aS,5aR,5bR,7aR,11aS,11bR,13aR,13bR)-5a,5b,8,8,11a-pentamethyl-1-(prop-1-en-2-yl)-3a-(2-(pyrimidin-2-yl)acetamido)-2,3,3a,4,5,5a,5b,6,7,7a,8,11,11a,11b,12,13,13a,13b-octadecahydro-1H-cyclopenta[a]chrysen-9-yl)benzoic acid], the EC50 is reported as less than 100 nM. `C=C(C)[C@@H]1CC[C@]2(NC(=O)Cc3ccccn3)CC[C@]3(C)[C@H](CC[C@@H]4[C@@]5(C)CC=C(c6ccc(C(=O)O)cc6)C(C)(C)[C@@H]5CC[C@]43C)[C@@H]12` [Example 127, 4-((1R,3aS,5aR,5bR,7aR,11aS,11bR,13aR,13bR)-5a,5b,8,8,11a-pentamethyl-1-(prop-1-en-2-yl)-3a-(2-(pyridin-2-yl)acetamido)-2,3,3a,4,5,5a,5b,6,7,7a,8,11,11a,11b,12,13,13a,13b-octadecahydro-1H-cyclopenta[a]chrysen-9-yl)benzoic acid] gave an EC50 of less than 100 nM. `CC(C)[C@@H]1CC[C@]2(NC(=O)CN3CCS(=O)(=O)CC3)CC[C@]3(C)[C@H](CC[C@@H]4[C@@]5(C)CC=C(c6ccc(C(=O)O)cc6)C(C)(C)[C@@H]5CC[C@]43C)[C@@H]12` [Example 129, 4-((1S,3aS,5aR,5bR,7aR,11aS,11bR,13aR,13bR)-3a-(((1,1-dioxido-4-thiomorpholinyl)acetyl)amino)-1-isopropyl-5a,5b,8,8,11a-pentamethyl-2,3,3a,4,5,5a,5b,6,7,7a,8,11,11a,11b,12,13,13a,13b-octadecahydro-1H-cyclopenta[a]chrysen-9-yl)benzoic acid] gave an EC50 of less than 100 nM. Compound `CC(C)[C@@H]1CC[C@]2(NC(=O)CN3CCS(=O)(=O)CC3)CC[C@]3(C)[C@H](CC[C@@H]4[C@@]5(C)CC[C@H](c6ccc(C(=O)O)cc6)C(C)(C)[C@@H]5CC[C@]43C)[C@@H]12` [Example 130, 4-((1S,3aS,5aR,5bR,7aS,9S,11aS,11bR,13aR,13bR)-3a-(((1,1-dioxido-4-thiomorpholinyl)acetyl)amino)-1-isopropyl-5a,5b,8,8,11a-pentamethylicosahydro-1H-cyclopenta[a]chrysen-9-yl)benzoic acid] has an EC50 of less than 100 nM. `C=C(C)[C@@H]1CC[C@]2(NC(=O)C(=O)O)CC[C@]3(C)[C@H](CC[C@@H]4[C@@]5(C)CC=C(c6ccc(C(=O)O)cc6)C(C)(C)[C@@H]5CC[C@]43C)[C@@H]12` [Example 130-1, 4-((1R,3aS,5aR,5bR,7aR,11aS,11bR,13aR,13bR)-3a-(carboxyformamido)-5a,5b,8,8,11a-pentamethyl-1-(prop-1-en-2-yl)-2,3,3a,4,5,5a,5b,6,7,7a,8,11,11a,11b,12,13,13a,13b-octadecahydro-1H-cyclopenta[a]chrysen-9-yl)benzoic acid] gave an EC50 greater than 100 nM. `C=C(C)[C@@H]1CC[C@]2(NC(=O)C3(NC(=O)OC(C)(C)C)CC3)CC[C@]3(C)[C@H](CC[C@@H]4[C@@]5(C)CC=C(c6ccc(C(=O)O)cc6)C(C)(C)[C@@H]5CC[C@]43C)[C@@H]12` [Example 130-2, 4-((1R,3aS,5aR,5bR,7aR,11aS,11bR,13aR,13bR)-3a-(1-(tert-butoxycarbonylamino)cyclopropanecarboxamido)-5a,5b,8,8,11a-pentamethyl-1-(prop-1-en-2-yl)-2,3,3a,4,5,5a,5b,6,7,7a,8,11,11a,11b,12,13,13a,13b-octadecahydro-1H-cyclopenta[a]chrysen-9-yl)benzoic acid] showed an EC50 of less than 100 nM.
